For the experiment, the target named is T1, Bcl-2 protein (Recombinant Human Bcl-2 Protein) (Homo sapiens, UniProt P10415).
T1 construct: purchased Novus NBP2-34889
Put plainly: Binding evaluation of mixture library compounds to Bcl-2 using AS-MS (affinity selection mass spectrometry). The following applies: for ASMS ratio (%) n = 2: replicate n = 2; for ASMS ratio (%) n = 2 / ASMS ratio (%) n = 1: ASMS Ratio(%)=(A−C)/B×100; for ASMS ratio (%) n = 1: replicate n = 1. Summed up:
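Readout is ASMS Ratio (%), (A−C)/B×100, from reversed-phase LC/MS of SEC-passed extracts, with protein-free unfiltered standard (B) and protein-free SEC blank (C). Recombinant human Bcl-2 at 20 μM final met ~1200 pooled compounds at […] each for 1 h, 23° C., dark, in Tris-HCl pH 7.4 buffer.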

Setting [1] is: AS-MS on the mixture of 1200 library compounds.
The mark [2] stands for this setting: AS-MS, mixture of 1200 compounds, Bcl-2.

Results on 18 compounds are retold here after patent US20240132431A1, “METHOD FOR ALKYLATING ACIDIC FUNCTIONAL GROUP” (Chugai Seiyaku Kabushiki Kaisha, priority 2021, published 2024).

T1 sequence (P10415 whole entry): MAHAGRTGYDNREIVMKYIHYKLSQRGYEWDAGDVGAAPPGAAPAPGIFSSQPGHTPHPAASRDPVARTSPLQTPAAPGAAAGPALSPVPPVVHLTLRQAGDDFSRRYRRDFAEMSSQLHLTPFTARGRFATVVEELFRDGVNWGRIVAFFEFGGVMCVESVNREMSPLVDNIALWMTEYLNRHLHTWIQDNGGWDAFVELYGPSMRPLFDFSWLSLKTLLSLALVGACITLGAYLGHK

`CCOc1cccc(-c2csc(CN3CCN(c4ccc(C(=O)NS(=O)(=O)c5ccc(NCCSc6ccccc6)c(C(F)(F)F)c5)nn4)CC3)c2)c1` [B2R093-01, 6-[4-[[4-(3-Ethoxyphenyl)thiophen-2-yl]methyl]piperazin-1-yl]-N-[4-(2-phenylsulfanylethylamino)-3-(trifluoromethyl)phenyl]sulfonylpyridazine-3-carboxamide]: the “ASMS ratio (%)” value (n = 1) is on record as 56.5% and the “ASMS ratio (%)” value (n = 2) was 0.0%.
With `CCOc1cncc(-c2cc(C(=O)N3CCN(c4ccc(C(=O)NS(=O)(=O)c5ccc(NCCSc6ccccc6)c([N+](=O)[O-])c5)nn4)CC3)cc(C(F)(F)F)c2)c1` [B2Q018-01, 6-[4-[3-(5-Ethoxypyridin-3-yl)-5-(trifluoromethyl)benzoyl]piperazin-1-yl]-N-[3-nitro-4-(2-phenylsulfanylethylamino)phenyl]sulfonylpyridazine-3-carboxamide], the “ASMS ratio (%) n = 2” value (AS-MS, mixture library, Bcl-2) was 0.0%.
`CCOc1cncc(-c2cc(C(=O)N3CCN(c4ccc(C(=O)Nc5ccc(OC)cc5)cc4)CC3)cc(C(F)(F)F)c2)c1` [B1O040-01, 4-[4-[3-(5-Ethoxypyridin-3-yl)-5-(trifluoromethyl)benzoyl]piperazin-1-yl]-N-(4-methoxyphenyl)benzamide]: under setting [1], the “ASMS ratio (%) n = 1” value came out at 1.8% and the “ASMS ratio (%) n = 2” value amounted to 0.3%.
Regarding `CCOc1cncc(-c2cnn(-c3cc(C(=O)N4CCN(c5ccc(C(=O)NCC67CC8CC(CC(C8)C6)C7)nn5)CC4)cc(C(F)(F)F)c3)c2)c1` [B1A022-01, N-(1-Adamantylmethyl)-6-[4-[3-[4-(5-ethoxypyridin-3-yl)pyrazol-1-yl]-5-(trifluoromethyl)benzoyl]piperazin-1-yl]pyridazine-3-carboxamide], under setting [2], the “ASMS ratio (%) n = 1” value was found to be 8.0% and the “ASMS ratio (%) n = 2” value is 7.7%.
For `CCOc1cccc(-c2ccc(C(=O)N3CCN(c4ccc(C(=O)NS(=O)(=O)C(C)(C)C)cc4)CC3)cc2F)c1` [B2L027-01, N-tert-Butylsulfonyl-4-[4-[4-(3-ethoxyphenyl)-3-fluorobenzoyl]piperazin-1-yl]benzamide], the “ASMS ratio (%)” value (n = 1) was determined as 0.0% and the “ASMS ratio (%)” value (n = 2) is 0.0%.
Take `CCOc1cccc(-c2csc(CN3CCN(c4ccc(C(=O)NS(=O)(=O)C(C)(C)C)cc4)CC3)c2)c1` [B2L067-01, N-tert-Butylsulfonyl-4-[4-[[4-(3-ethoxyphenyl)thiophen-2-yl]methyl]piperazin-1-yl]benzamide]: the “ASMS ratio (%)” value runs as follows: (n = 1) 0.0%; (n = 2) 0.0%.
On to `CCOc1cccc(-c2cnn(-c3cc(C(=O)N4CCN(c5ccc(C(=O)N(C)CC67CC8CC(CC(C8)C6)C7)cc5)CC4)cc(C(F)(F)F)c3)c2)c1` [B3A043-01, N-(1-Adamantylmethyl)-4-[4-[3-[4-(3-ethoxyphenyl)pyrazol-1-yl]-5-(trifluoromethyl)benzoyl]piperazin-1-yl]-N-methylbenzamide], for which, under setting [1], the “ASMS ratio (%) n = 1” value was found to be 0.5% and the “ASMS ratio (%) n = 2” value is listed as −0.3%.
Taken in the same sequence, the figures for `CCOc1cccc(-c2ccc(C(=O)N3CCN(c4ccc(C(=O)N(CC)CC)cc4)CC3)cc2F)c1` [B4J027-01, 4-[4-[4-(3-Ethoxyphenyl)-3-fluorobenzoyl]piperazin-1-yl]-N,N-diethylbenzamide] were −0.5% and 0.2%.
Turning to `CCOc1cccc(-c2cc(CN3CCN(c4ccc(C(=O)NS(=O)(=O)CC56CC7CC(CC(C7)C5)C6)cc4)CC3)cc(OC(C)C)c2)c1` [B2A057-01, N-(1-Adamantylmethylsulfonyl)-4-[4-[[3-(3-ethoxyphenyl)-5-propan-2-yloxyphenyl]methyl]piperazin-1-yl]benzamide], for the setting “AS-MS, mixture library, Bcl-2”, the “ASMS ratio (%) n = 1” value was −4.8% and the “ASMS ratio (%) n = 2” value is −5.3%.
`CCOc1cncc(C#Cc2cc(C(=O)N3CCN(c4ccc(C(=O)NCC56CC7CC(CC(C7)C5)C6)cc4)CC3)cc(C(F)(F)F)c2)c1` [B1A042-01, N-(1-Adamantylmethyl)-4-[4-[3-[2-(5-ethoxypyridin-3-yl)ethynyl]-5-(trifluoromethyl)benzoyl]piperazin-1-yl]benzamide]: under setting [2], the “ASMS ratio (%) n = 1” value is 12.5% and the “ASMS ratio (%) n = 2” value is on record as −8.5%.
Regarding `CCOc1cncc(-c2ccc(C(=O)N3CCN(c4ccc(C(=O)NS(=O)(=O)CCC(F)(F)F)cc4)CC3)cc2F)c1` [B2N028-01, 4-[4-[4-(5-Ethoxypyridin-3-yl)-3-fluorobenzoyl]piperazin-1-yl]-N-(3,3,3-trifluoropropylsulfonyl)benzamide], the “ASMS ratio (%)” value runs as follows: (n = 1) −0.7%; (n = 2) −0.9%.
For the compound `CCOc1cncc(-c2ccccc2CN2CCN(c3ccc(C(=O)NCC45CC6CC(CC(C6)C4)C5)nn3)CC2)c1` [B1A072-01, N-(1-Adamantylmethyl)-6-[4-[[2-(5-ethoxypyridin-3-yl)phenyl]methyl]piperazin-1-yl]pyridazine-3-carboxamide], under setting [2], the “ASMS ratio (%) n = 1” value is 3.9% and the “ASMS ratio (%) n = 2” value is recorded as −0.2%.
In the case of `CCOc1cccc(C#Cc2cncc(C(=O)N3CCN(c4ccc(C(=O)NS(=O)(=O)CCC(F)(F)F)nn4)CC3)c2)c1` [B2N009-01, 6-[4-[5-[2-(3-Ethoxyphenyl)ethynyl]pyridine-3-carbonyl]piperazin-1-yl]-N-(3,3,3-trifluoropropylsulfonyl)pyridazine-3-carboxamide], the “ASMS ratio (%)” value reads like this: (n = 1) 0.0%; (n = 2) −0.4%.
As to `CCOc1cccc(-c2ccc(C(=O)N3CCN(c4ccc(C(=O)NS(=O)(=O)CC56CC7CC(CC(C7)C5)C6)nn4)CC3)c3ccccc23)c1` [B2A013-01, N-(1-Adamantylmethylsulfonyl)-6-[4-[4-(3-ethoxyphenyl)naphthalene-1-carbonyl]piperazin-1-yl]pyridazine-3-carboxamide], where the note is “AS-MS, mixture library, Bcl-2”, the “ASMS ratio (%) n = 1” value came out at 11.6% and the “ASMS ratio (%) n = 2” value is reported as 17.8%.
Turning to `CCOc1cccc(C#Cc2ccccc2CN2CCN(c3ccc(C(=O)NS(=O)(=O)CCC(F)(F)F)nn3)CC2)c1` [B2N095-01, 6-[4-[[2-[2-(3-Ethoxyphenyl)ethynyl]phenyl]methyl]piperazin-1-yl]-N-(3,3,3-trifluoropropylsulfonyl)pyridazine-3-carboxamide], the “ASMS ratio (%)” value is 0.0% (n = 1) and 0.0% (n = 2).
Regarding `CCOc1cccc(-c2ccc(C(C)N3CCN(c4ccc(C(=O)NCC56CC7CC(CC(C7)C5)C6)cc4)CC3)cc2)c1` (centres unmarked) [B1A097-01, N-(1-Adamantylmethyl)-4-[4-[1-[4-(3-ethoxyphenyl)phenyl]ethyl]piperazin-1-yl]benzamide], under setting [2], the “ASMS ratio (%) n = 1” value is 3.2% and the “ASMS ratio (%) n = 2” value was determined as 2.5%.
Regarding `CCOc1cccc(-c2ccc(C(=O)N3CCN(c4ccc(C(=O)NS(=O)(=O)c5ccc(NCCSc6ccccc6)c(C(F)(F)F)c5)cc4)CC3)cc2C)c1` [B2R025-01, 4-[4-[4-(3-Ethoxyphenyl)-3-methylbenzoyl]piperazin-1-yl]-N-[4-(2-phenylsulfanylethylamino)-3-(trifluoromethyl)phenyl]sulfonylbenzamide], the “ASMS ratio (%)” value (n = 1) is −1.0% and the “ASMS ratio (%)” value (n = 2) is on record as −2.4%.
As to `CCOc1cncc(-c2ccc(CN3CCN(c4ccc(C(=O)NS(=O)(=O)CC56CC7CC(CC(C7)C5)C6)nn4)CC3)cc2F)c1` [B2A078-01, N-(1-Adamantylmethylsulfonyl)-6-[4-[[4-(5-ethoxypyridin-3-yl)-3-fluorophenyl]methyl]piperazin-1-yl]pyridazine-3-carboxamide], under “AS-MS, mixture library, Bcl-2”, the “ASMS ratio (%) n = 1” value was found to be 15.2% and the “ASMS ratio (%) n = 2” value is recorded as 9.3%.
